Assay results reported in the supplement of paper PMC11451515.

What was measured:
Assay in all cases: AUC of viability dose-response curve (% viability x log10 dose units); higher = less sensitive
Details in all cases: 48 h
[1] = test system: SEM cells
Outline: (§1)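 Leukemia cells adapted to each medium were seeded in 1536-well plates (500 or 1000 cells/well). They were dosed with library compounds in DMSO at 11 threefold doses, 47 μM to 0.79 nM, for 48 h at 37°C. CellTiter-Glo One luminescence was normalised per plate to DMSO and cell-free wells. Area under the curve was integrated by trapezoidal rule over log10 doses on a four-parameter log-logistic fit; curves exceeding full viability were scaled and curves failing quality control removed.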

[2] = test system: NOMO1
Outline: as §1

[3] = test system: P12-Ichikawa
Outline: as §1

[4] = RPMI 5 mM glucose + 10% dialyzed FBS

SMILES: C[C@]12C[C@H](O)[C@H]3[C@@H](CC\C4=C\C(=O)\C=C/[C@]34C)[C@@H]1CC[C@]2(O)C(=O)CO
- AUC of viability dose-response curve ([1]; HPLM + 10% dialyzed FBS): 389
- AUC of viability dose-response curve ([1]; RPMI 5 mM glucose + 10% FBS): 380
- AUC of viability dose-response curve [1, 4]: 359
- AUC of viability dose-response curve ([2]; HPLM + 10% dialyzed FBS): 446
- AUC of viability dose-response curve ([2]; RPMI 5 mM glucose + 10% FBS): 456
- AUC of viability dose-response curve [2, 4]: 449
- AUC of viability dose-response curve ([3]; HPLM + 10% dialyzed FBS): 372
- AUC of viability dose-response curve ([3]; RPMI 5 mM glucose + 10% FBS): 353
- AUC of viability dose-response curve [3, 4]: 349

SMILES: CN1[C@@H]2CC[C@H]1CC(OC(=O)c1c[nH]c3ccccc13)C2 (stereo not given in full)
- AUC of viability dose-response curve ([2]; HPLM + 10% dialyzed FBS): 436
- AUC of viability dose-response curve ([2]; RPMI 5 mM glucose + 10% FBS): 459
- AUC of viability dose-response curve [2, 4]: 444
- AUC of viability dose-response curve ([3]; HPLM + 10% dialyzed FBS): 463
- AUC of viability dose-response curve ([3]; RPMI 5 mM glucose + 10% FBS): 468
- AUC of viability dose-response curve [3, 4]: 466

SMILES: CC1=NN(c2ccc(C)c(C)c2)C(=O)/C1=N/Nc1cccc(-c2cccc(C(=O)O)c2)c1O
- AUC of viability dose-response curve ([1]; HPLM + 10% dialyzed FBS): 453
- AUC of viability dose-response curve ([1]; RPMI 5 mM glucose + 10% FBS): 448
- AUC of viability dose-response curve [1, 4]: 442
- AUC of viability dose-response curve ([2]; HPLM + 10% dialyzed FBS): 431
- AUC of viability dose-response curve ([2]; RPMI 5 mM glucose + 10% FBS): 448
- AUC of viability dose-response curve [2, 4]: 428
- AUC of viability dose-response curve ([3]; HPLM + 10% dialyzed FBS): 448
- AUC of viability dose-response curve ([3]; RPMI 5 mM glucose + 10% FBS): 430
- AUC of viability dose-response curve [3, 4]: 426

SMILES: C[C@]12CC[C@@H]3c4ccc(OC(=O)N(CCCl)CCCl)cc4CC[C@H]3[C@@H]1CC[C@@H]2OP(=O)([O-])[O-].[Na+].[Na+]
- AUC of viability dose-response curve ([1]; HPLM + 10% dialyzed FBS): 429
- AUC of viability dose-response curve ([1]; RPMI 5 mM glucose + 10% FBS): 397
- AUC of viability dose-response curve [1, 4]: 382
- AUC of viability dose-response curve ([2]; HPLM + 10% dialyzed FBS): 406
- AUC of viability dose-response curve ([2]; RPMI 5 mM glucose + 10% FBS): 460
- AUC of viability dose-response curve [2, 4]: 455

SMILES: COc1ccc(Cc2ccc(NC(N)=O)cc2)cc1-c1cccc(Cl)c1
- AUC of viability dose-response curve ([1]; HPLM + 10% dialyzed FBS): 458
- AUC of viability dose-response curve ([1]; RPMI 5 mM glucose + 10% FBS): 465
- AUC of viability dose-response curve [1, 4]: 469
- AUC of viability dose-response curve ([2]; HPLM + 10% dialyzed FBS): 472
- AUC of viability dose-response curve ([2]; RPMI 5 mM glucose + 10% FBS): 471
- AUC of viability dose-response curve [2, 4]: 476
- AUC of viability dose-response curve ([3]; HPLM + 10% dialyzed FBS): 467
- AUC of viability dose-response curve ([3]; RPMI 5 mM glucose + 10% FBS): 465
- AUC of viability dose-response curve [3, 4]: 464

SMILES: C[C@H](NC(=O)/C(C#N)=C/c1cccc(Br)n1)c1ccccc1
- AUC of viability dose-response curve ([1]; HPLM + 10% dialyzed FBS): 336
- AUC of viability dose-response curve ([1]; RPMI 5 mM glucose + 10% FBS): 316
- AUC of viability dose-response curve [1, 4]: 336
- AUC of viability dose-response curve ([2]; HPLM + 10% dialyzed FBS): 348
- AUC of viability dose-response curve ([2]; RPMI 5 mM glucose + 10% FBS): 361
- AUC of viability dose-response curve [2, 4]: 371
- AUC of viability dose-response curve ([3]; HPLM + 10% dialyzed FBS): 336
- AUC of viability dose-response curve ([3]; RPMI 5 mM glucose + 10% FBS): 353
- AUC of viability dose-response curve [3, 4]: 351

SMILES: C[C@H](O)[C@H]1[C@@H]2[C@H](C)C(=C(\N2C1=O)C(O)=O)/S[C@@H]3CN[C@H](CN[S+](N)([O-])=O)C3
- AUC of viability dose-response curve ([1]; HPLM + 10% dialyzed FBS): 443
- AUC of viability dose-response curve ([1]; RPMI 5 mM glucose + 10% FBS): 453
- AUC of viability dose-response curve [1, 4]: 420
- AUC of viability dose-response curve ([2]; HPLM + 10% dialyzed FBS): 439
- AUC of viability dose-response curve ([2]; RPMI 5 mM glucose + 10% FBS): 443
- AUC of viability dose-response curve [2, 4]: 452
- AUC of viability dose-response curve ([3]; HPLM + 10% dialyzed FBS): 465
- AUC of viability dose-response curve ([3]; RPMI 5 mM glucose + 10% FBS): 455
- AUC of viability dose-response curve [3, 4]: 447

SMILES: CC(C)c1cnn2c(NCc3ccccc3)cc(N[C@@H](CO)[C@H](O)CO)nc12
- AUC of viability dose-response curve ([1]; HPLM + 10% dialyzed FBS): 299
- AUC of viability dose-response curve ([1]; RPMI 5 mM glucose + 10% FBS): 290
- AUC of viability dose-response curve [1, 4]: 299
- AUC of viability dose-response curve ([2]; HPLM + 10% dialyzed FBS): 297
- AUC of viability dose-response curve ([2]; RPMI 5 mM glucose + 10% FBS): 303
- AUC of viability dose-response curve [2, 4]: 302
- AUC of viability dose-response curve ([3]; HPLM + 10% dialyzed FBS): 327
- AUC of viability dose-response curve ([3]; RPMI 5 mM glucose + 10% FBS): 313
- AUC of viability dose-response curve [3, 4]: 320

SMILES: CN\1C(=O)/C(=C(\N=C1N2CCCC[S+]2([O-])=O)C(=O)NCC3=CC=C(F)C=C3)O
- AUC of viability dose-response curve ([1]; HPLM + 10% dialyzed FBS): 471
- AUC of viability dose-response curve ([1]; RPMI 5 mM glucose + 10% FBS): 458
- AUC of viability dose-response curve [1, 4]: 466
- AUC of viability dose-response curve ([2]; HPLM + 10% dialyzed FBS): 441
- AUC of viability dose-response curve ([2]; RPMI 5 mM glucose + 10% FBS): 475
- AUC of viability dose-response curve [2, 4]: 451
- AUC of viability dose-response curve ([3]; HPLM + 10% dialyzed FBS): 444
- AUC of viability dose-response curve ([3]; RPMI 5 mM glucose + 10% FBS): 462
- AUC of viability dose-response curve [3, 4]: 459
